Among the data in the SangsterLogP compilation are logD values, retold here.

Series [1] can be described thus: method code SF-AS, from DOI: 10.1002/qsar.200430865. Particulars: pH 3.5.
For series [2] the following is noted: pH 3.5.

The structures appear in SMILES notation.

Broadly, the logD is lipophilicity at a set pH, counting ionised and neutral species.

In the case of `CC(=O)c1cccc(NC(=S)c2ccc(O)cc2O)c1`, the logD in series [1] worked out at 2.36.

In series [1], `Oc1ccc(C(=S)Nc2ccc(Br)cc2)c(O)c1` came in with a logD of 4.02.

Take `COC(=O)c1ccccc1NC(=S)c1ccc(O)cc1O`: the logD in series [1] came out at 2.92.

The compound `N#Cc1ccc(NC(=S)c2ccc(O)cc2O)cc1` showed a logD in series [1] of 2.41.

Turning to `Oc1ccc(C(=S)Nc2cccc(Cl)c2Cl)c(O)c1`, in series [1], the logD stood at 4.02.

As to `CCOc1ccc(NC(=S)c2ccc(O)cc2O)cc1`, the logD in series [1] was 3.49.

`Oc1ccc(C(=S)Nc2cc(Cl)ccc2O)c(O)c1` yielded a pH-dependent lipophilicity (logD) in series [1] of 3.58.

Compound `Oc1ccc(C(=S)Nc2cc(Cl)c(Cl)cc2Cl)c(O)c1` registered a logD in series [1] of 4.92.

Consider `COc1cccc(NC(=S)c2ccc(O)cc2O)c1`, for which the logD in series [2] was determined as 3.54.

`Oc1ccc(C(=S)Nc2ccccc2F)c(O)c1` displayed a pH-dependent lipophilicity (logD) in series [1] of 3.36.

As to `Oc1ccc(C(=S)Nc2cccc(C(F)(F)F)c2)c(O)c1`, the logD in series [1] amounted to 4.26.

Turning to `Oc1ccc(C(=S)Nc2ccc(F)cc2F)c(O)c1`, the logD in series [1] was determined as 3.54.

`CCOc1ccccc1NC(=S)c1ccc(O)cc1O` gave a logD in series [1] of 3.8.

Compound `Oc1ccc(C(=S)Nc2cccc(Cl)c2)c(O)c1` gave a logD in series [1] of 3.9.

As to `Oc1ccc(C(=S)Nc2ccc(Cl)cc2Cl)c(O)c1`, the logD in series [1] came to 4.26.

For the compound `Oc1ccc(C(=S)Nc2ccc(Cl)c(F)c2)c(O)c1`, the logD in series [1] worked out at 4.43.

`Oc1ccc(C(=S)Nc2cccc(F)c2)c(O)c1` registered a logD in series [1] of 3.41.

In series [1], `Oc1ccc(C(=S)Nc2cccc(Br)c2)c(O)c1` yielded a log distribution coefficient (logD) of 3.46.
